Experimental data taken from patent US20260092076A1, “NOVEL COMPOUNDS” (Hoffmann-La Roche Inc., priority 2023, published 2026).
Structures can show the parent of a compound that is named as a salt.

Tests used:
NLRP3 [1] = target: T1, NLRP3 (Homo sapiens, UniProt Q96P20); experiment: THP-1 cells pyroptosis assay; assay type: cell-based; parameters: Seed THP-1 cells (25,000 cells/well) containing 1.0 μg/ml LPS in 40 μl of RPMI medium; host or cells: THP-1 cells, LPS-primed, nigericin-stimulated; details: THP-1 cells with 1.0 μg/ml LPS, compound 3 hours, nigericin 5 μM 1 hr, resazurin readout
Protocol: THP-1 cells (ATCC #TIB-202) were grown in RPMI containing L-glutamine (Gibco #11835) supplemented with 1 mM sodium pyruvate (Sigma #S8636) and penicillin (100 units/ml)/streptomycin (0.1 mg/ml) (Sigma #P4333) in 10% Fetal Bovine Serum (FBS) (Sigma #F0804). The cells were routinely passaged and grown to confluency (˜10^6 cells/ml). On the day of the experiment, THP-1 cells were harvested and resuspended into RPMI medium (without FBS). The cells were then counted and viability (>90%) checked by Trypan blue (Sigma #T8154). Appropriate dilutions were made to give a concentration of 625,000 cells/ml. To this diluted cell solution was added LPS (Sigma #L4524) to give a 1 μg/ml Final Assay Concentration (FAC). 40 μl of the final preparation was aliquoted into each well of a 96-well plate. The plate thus prepared was used for compound screening.
The following method step-by-step assay was followed for compound screening. • Seed THP-1 cells (25,000 cells/well) containing 1.0 μg/ml LPS in 40 μl of RPMI medium (without FBS) in 96-well, black walled, clear bottom cell culture plates coated with poly-D-lysine (VWR #734-0317) • Add 5 μl compound (8 points half-log dilution, with 10 μM top dose) or vehicle (DMSO 0.1% FAC) to the appropriate wells • Incubate for 3 hours at 37° C., 5% CO2 • Add 5 μl nigericin (Sigma #N7143) (FAC 5 μM) to all wells • Incubate for 1 hr at 37° C., 5% CO2 • At the end of the incubation period, spin plates at 300×g for 3 mins and remove supernatant • Then add 50 μl of resazurin (Sigma #R7017) (FAC 100 μM resazurin in RPMI medium without FBS) and incubate plates for a further 1-2 hours at 37° C. and 5% CO2 • Plates were read in an Envision reader at Ex 560 nm and Em 590 nm • IC50 data is fitted to a non-linear regression equation (log inhibitor vs response-variable slope 4-parameters)

NLRP3 [2] = target: T1, NLRP3; experiment: Human whole blood IL-1β release assay; assay type: cell-based; details: human whole blood with 1 μg/ml LPS, compound 3 hours, nigericin 10 μM 1 hr, IL-1β by AlphaLisa
Protocol: For systemic delivery, the ability to inhibit NLRP3 when the compounds are present within the bloodstream is of great importance. For this reason, the NLRP3 inhibitory activity of a number of compounds in human whole blood was investigated in accordance with the following protocol. • Human whole blood in Li-heparin tubes was obtained from healthy donors from a volunteer donor panel. • Plate out 80 μl of whole blood containing 1 μg/ml of LPS in 96-well, clear bottom cell culture plate (Corning #3585) • Add 10 μl compound (8 points half-log dilution with 10 μM top dose) or vehicle (DMSO 0.1% FAC) to the appropriate wells • Incubate for 3 hours at 37° C., 5% CO2 • Add 10 μl nigericin (Sigma #N7143) (10 μM FAC) to all wells • Incubate for 1 hr at 37° C., 5% CO2 • At the end of the incubation period, spin plates at 300×g for 5 mins to pellet cells and remove 20 μl of supernatant and add to 96-well v-bottom plates for IL-1β analysis (note: these plates containing the supernatants can be stored at −80° C. to be analysed at a later date) • IL-1β was measured according to the manufacturer protocol (Perkin Elmer-AlphaLisa IL-1 Kit AL220F-5000) • IC50 data is fitted to a non-linear regression equation (log inhibitor vs response-variable slope 4-parameters)

T1 sequence (Q96P20 whole entry): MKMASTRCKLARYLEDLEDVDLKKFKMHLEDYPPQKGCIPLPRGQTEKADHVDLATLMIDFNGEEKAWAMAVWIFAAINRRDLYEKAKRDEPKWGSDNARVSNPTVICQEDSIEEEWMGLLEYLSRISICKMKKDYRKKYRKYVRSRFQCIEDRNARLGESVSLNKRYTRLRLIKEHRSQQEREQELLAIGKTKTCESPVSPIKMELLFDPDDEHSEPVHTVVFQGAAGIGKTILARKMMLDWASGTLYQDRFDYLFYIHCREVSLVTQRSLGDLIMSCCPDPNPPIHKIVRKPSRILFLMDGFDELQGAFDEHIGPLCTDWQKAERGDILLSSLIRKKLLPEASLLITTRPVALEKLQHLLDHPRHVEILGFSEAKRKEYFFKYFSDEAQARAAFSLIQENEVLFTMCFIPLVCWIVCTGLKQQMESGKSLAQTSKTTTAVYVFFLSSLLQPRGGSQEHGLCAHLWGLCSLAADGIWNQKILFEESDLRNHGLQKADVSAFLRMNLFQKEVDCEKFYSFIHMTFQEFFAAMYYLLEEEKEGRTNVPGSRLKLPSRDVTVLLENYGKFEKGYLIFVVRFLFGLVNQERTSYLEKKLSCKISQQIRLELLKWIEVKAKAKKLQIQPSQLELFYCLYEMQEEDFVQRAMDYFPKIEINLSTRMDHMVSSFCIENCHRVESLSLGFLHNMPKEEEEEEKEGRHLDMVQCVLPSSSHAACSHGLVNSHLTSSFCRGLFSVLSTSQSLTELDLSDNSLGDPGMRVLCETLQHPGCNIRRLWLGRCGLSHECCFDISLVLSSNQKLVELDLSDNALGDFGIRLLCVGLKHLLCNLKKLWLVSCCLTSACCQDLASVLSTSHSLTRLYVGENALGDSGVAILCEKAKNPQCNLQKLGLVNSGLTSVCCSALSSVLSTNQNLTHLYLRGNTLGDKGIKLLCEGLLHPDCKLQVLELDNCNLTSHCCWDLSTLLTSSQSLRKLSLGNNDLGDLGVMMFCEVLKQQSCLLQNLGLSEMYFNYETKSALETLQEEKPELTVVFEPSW

SMILES | IC50 (NLRP3 [1]) [nM] | IC50 (NLRP3 [2]) [nM]
Cc1cc(C(F)(F)F)cc(O)c1-c1ccc2oc(N3Cc4c[nH]c(=O)cc4C3)nc2n1 [Example 1, 2-[5-[2-Hydroxy-6-methyl-4-(trifluoromethyl)phenyl]oxazolo[4,5-b]pyridin-2-yl]-3,5-dihydro-1H-pyrrolo[3,4-c]pyridin-6-one] | 0.7 | 108
Cc1cc(C(F)(F)F)cc(O)c1-c1ccc2oc(N3Cc4cc(=O)n(C)cc4C3)nc2n1 [Example 2, 2-[5-[2-Hydroxy-6-methyl-4-(trifluoromethyl)phenyl]oxazolo[4,5-b]pyridin-2-yl]-5-methyl-1,3-dihydropyrrolo[3,4-c]pyridin-6-one] | 3.3 | 301
Cc1cc(Cl)cc(O)c1-c1ccc2oc(N3Cc4c[nH]c(=O)cc4C3)nc2n1 [Example 4, 2-[5-(4-Chloro-2-hydroxy-6-methyl-phenyl)oxazolo[4,5-b]pyridin-2-yl]-3,5-dihydro-1H-pyrrolo[3,4-c]pyridin-6-one] | 1.7 | 77
Cc1cc(Cl)cc(O)c1-c1ccc2oc(N3Cc4ccccc4C3)nc2n1 [Example 6, 5-Chloro-2-(2-isoindolin-2-yloxazolo[4,5-b]pyridin-5-yl)-3-methyl-phenol] | 90 | 
Cc1cc(Cl)cc(O)c1-c1ccc2oc(N3Cc4ccncc4C3)nc2n1 [Example 7, 5-chloro-2-[2-(1,3-dihydropyrrolo[3,4-c]pyridin-2-yl)oxazolo[4,5-b]pyridin-5-yl]-3-methyl-phenol] | 9.5 | 487
Cc1cc(Cl)cc(O)c1-c1ccc2oc(N3Cc4ccc(O)cc4C3)nc2n1 [Example 8, 2-[5-(4-Chloro-2-hydroxy-6-methyl-phenyl)oxazolo[4,5-b]pyridin-2-yl]isoindolin-5-ol] | 69.9 | 
Cc1cc(Cl)cc(O)c1-c1ccc2oc(N3Cc4cccc(F)c4C3)nc2n1 [Example 9, 5-Chloro-2-[2-(4-fluoroisoindolin-2-yl)oxazolo[4,5-b]pyridin-5-yl]-3-methyl-phenol] | 263 | 
Cc1cc(C#N)cc(O)c1-c1ccc2oc(N3Cc4ccncc4C3)nc2n1 [Example 10, 4-[2-(1,3-Dihydropyrrolo[3,4-c]pyridin-2-yl)oxazolo[4,5-b]pyridin-5-yl]-3-hydroxy-5-methyl-benzonitrile] | 29 | 2230
Cc1ncc2c(n1)CCN(c1nc3nc(-c4c(C)cc(Cl)cc4O)ccc3o1)C2 [Example 11, 5-Chloro-3-methyl-2-[2-(2-methyl-7,8-dihydro-5H-pyrido[4,3-d]pyrimidin-6-yl)oxazolo[4,5-b]pyridin-5-yl]phenol] | 27.1 | 225
Cc1cc(C#N)cc(O)c1-c1ccc2oc(N3CCc4ncncc4C3)nc2n1 [Example 17, 4-[2-(7,8-Dihydro-5H-pyrido[4,3-d]pyrimidin-6-yl)oxazolo[4,5-b]pyridin-5-yl]-3-hydroxy-5-methyl-benzonitrile] | 34.9 | 225
Cc1cc(C(F)(F)F)cc(O)c1-c1ccc2oc(N3Cc4nccnc4C3)nc2n1 [Example 23, 2-[2-(5,7-Dihydropyrrolo[3,4-b]pyrazin-6-yl)oxazolo[4,5-b]pyridin-5-yl]-3-methyl-5-(trifluoromethyl)phenol] |  | 3720
Cc1cc(Cl)cc(O)c1-c1ccc2oc(N3CCc4c(C#N)cccc4C3)nc2n1 [Example 33, 2-(5-(4-Chloro-2-hydroxy-6-methylphenyl)oxazolo[4,5-b]pyridin-2-yl)-1,2,3,4-tetrahydroisoquinoline-5-carbonitrile] | 447 | 
COc1cccc2c1CCN(c1nc3nc(-c4c(C)cc(Cl)cc4O)ccc3o1)C2 [Example 34, 5-chloro-2-[2-(5-methoxy-3,4-dihydro-1H-isoquinolin-2-yl)oxazolo[4,5-b]pyridin-5-yl]-3-methyl-phenol] | 675 | 
Cc1cc(Cl)cc(O)c1-c1ccc2oc(N3CCc4ccc(F)cc4C3)nc2n1 [Example 35, 5-Chloro-2-[2-(7-fluoro-3,4-dihydro-1H-isoquinolin-2-yl)oxazolo[4,5-b]pyridin-5-yl]-3-methyl-phenol] | 236 | 
Cc1cc(Cl)cc(O)c1-c1ccc2oc(N3CCc4nccnc4C3)nc2n1 [Example 40, 5-Chloro-2-[2-(7,8-dihydro-5H-pyrido[3,4-b]pyrazin-6-yl)oxazolo[4,5-b]pyridin-5-yl]-3-methyl-phenol] | 71.6 | 
Cc1cc(C(F)(F)F)cc(O)c1-c1ccc2oc(N3CCc4nc[nH]c(=O)c4C3)nc2n1 [Example 41, 6-[5-[2-Hydroxy-6-methyl-4-(trifluoromethyl)phenyl]oxazolo[4,5-b]pyridin-2-yl]-3,5,7,8-tetrahydropyrido[4,3-d]pyrimidin-4-one] | 174 | 
Cc1cc(C(F)(F)F)cc(O)c1-c1ccc2oc(N3Cc4[nH]c(=O)[nH]c(=O)c4C3)nc2n1 [Example 44, 6-[5-[2-Hydroxy-6-methyl-4-(trifluoromethyl)phenyl]oxazolo[4,5-b]pyridin-2-yl]-5,7-dihydro-1H-pyrrolo[3,4-d]pyrimidine-2,4-dione] | 245 | 

Continued by falling IC50 (NLRP3 [1]), values first:

IC50 (NLRP3 [1]) [nM] | IC50 (NLRP3 [2]) [nM] | SMILES
144 |  | Cc1cc(Cl)cc(O)c1-c1ccc2oc(N3Cc4ccc5c(c4C3)OCO5)nc2n1 [Example 42, 5-Chloro-2-(2-(6,8-dihydro-7H-[1,3]dioxolo[4,5-e]isoindol-7-yl)oxazolo[4,5-b]pyridin-5-yl)-3-methylphenol]
66 |  | Cc1cc(C#N)cc(O)c1-c1ccc2oc(N3Cc4ccccc4C3)nc2n1 [Example 16, 3-Hydroxy-4-(2-isoindolin-2-yloxazolo[4,5-b]pyridin-5-yl)-5-methyl-benzonitrile]
56.2 | 305 | Cc1cc(Cl)cc(O)c1-c1ccc2oc(N3Cc4c[nH]nc4C3)nc2n1 [Example 14, 5-Chloro-2-[2-(4,6-dihydro-2H-pyrrolo[3,4-c]pyrazol-5-yl)oxazolo[4,5-b]pyridin-5-yl]-3-methyl-phenol]
15 | 304 | Cc1cc(Cl)cc(O)c1-c1ccc2oc(N3Cc4cncnc4C3)nc2n1 [Example 13, 5-Chloro-2-[2-(5,7-dihydropyrrolo[3,4-d]pyrimidin-6-yl)oxazolo[4,5-b]pyridin-5-yl]-3-methyl-phenol formic acid salt]
10.5 | 173 | Cc1cc(Cl)cc(O)c1-c1ccc2oc(N3CCc4ccncc4C3)nc2n1 [Example 15, 5-Chloro-2-[2-(3,4-dihydro-1H-2,7-naphthyridin-2-yl)oxazolo[4,5-b]pyridin-5-yl]-3-methyl-phenol]
7.7 | 117 | Cc1cc(C#N)cc(O)c1-c1ccc2oc(N3Cc4c[nH]c(=O)cc4C3)nc2n1 [Example 3, 3-Hydroxy-5-methyl-4-[2-(6-oxo-3,5-dihydro-1H-pyrrolo[3,4-c]pyridin-2-yl)oxazolo[4,5-b]pyridin-5-yl]benzonitrile]
2.6 | 151 | Cc1cc(C(F)(F)F)cc(O)c1-c1ccc2oc(N3Cc4cc(=O)n(CCO)cc4C3)nc2n1 [Example 5, 5-(2-Hydroxyethyl)-2-[5-[2-hydroxy-6-methyl-4-(trifluoromethyl)phenyl]oxazolo[4,5-b]pyridin-2-yl]-1,3-dihydropyrrolo[3,4-c]pyridin-6-one]
2 | 840 | COc1cc2c(cn1)CN(c1nc3nc(-c4c(C)cc(C(F)(F)F)cc4O)ccc3o1)C2 [Example 12, 2-[2-(6-Methoxy-1,3-dihydropyrrolo[3,4-c]pyridin-2-yl)oxazolo[4,5-b]pyridin-5-yl]-3-methyl-5-(trifluoromethyl)phenol]
